For data set [1], the system named is NO production in LPS-induced RAW 264.7 macrophages. The data set can be described thus: Inhibition of LPS induced NO production in RAW264.7 macrophages (Griess reagent). The format is cell-based, mouse. The procedure: All compounds were assayed by measuring the inhibitory effects on NO production induced by LPS in mouse macrophage RAW 264.7 cells. The RAW 264.7 cells were seeded in each well of a 96-well plate at a concentration of 5 × 10^5 cells/ml in DMEM medium containing 10% fetal bovine serum, 2 mmol/l glutamine, 100 U/ml penicillin, and 100 μg/ml streptomycin. After incubation at 37°C in a humidified atmosphere of 5% CO2 air for 12 h, cells were treated with LPS (1 μg/ml) and compounds ([…], and compound was dissolved in DMSO to dilute until the final DMSO concentration <0.1%, v/v), then incubation for 24 h at 37°C. NO production was determined by measuring the quantity of nitrite in the culture medium by the Griess reagent. Aminoguanidine was selected as a positive control. A 50 μl of the supernatant of culture medium was mixed with 100 μl of the Griess reagent. Using nitrite to generate a standard curve, nitrite production was measured by a microplate reader at 540 nm. Cell viability was examined by the MTT method (Wu et al., [2016]). The compounds with inhibitory rate more than 50% at a dose of 50 μg/ml were further detected in the gradient concentrations to calculate IC50 values. […]
(§1) 7. Assay for inhibition toward nitric oxide production in RAW264.7 macrophages The experiment was conducted according to a literature procedure.1 Murine monocytic RAW264.7 cells grown in 96-well cell culture plates (2 × 10^5 cells/well) and pretreated with serial concentrations of the compounds 1‒8 for 30 min, followed by stimulation with LPS (1 μg/mL) under a humidified atmosphere with 5% CO2 at 37°C. After 24 h, the NO production of the supernatant was determined by adding the 100 μL of Griess reagent. Subsequently, the MTT
(§2) [3-(4,5-dimethylthiazol-2-yl)-2,5-diphenyltetrazolium bromide] reduction2 was used to evaluate the cell viability, and results were expressed as the mean value of triplicate determinations. The positive control was aminoguanidine.2 […]
A general note: Griess reagent forms a coloured azo dye with nitrite.

For the next data set, the system named is HaCaT cells. The data set can be described thus: Protection against UVB-induced cell damage in HaCaT cells (MTT assay). Format: cell-based. As to conditions: Homo sapiens, HaCaT, light or radiation study, 24 h, read-out: cell viability after UVB irradiation. The procedure:
HaCaT cells were seeded at 5 × 10^5 cells per well in 6-well plates and incubated under starvation conditions for 24 h using serum-free MEM. HaCaT cells were exposed to UVB irradiation (UVB lamp: SUV-1000, Sigma-China) at a dose of 30 mJ/cm^2. After UVB irradiation, DMEM medium containing 1 (20 μM) or epigallocatechin gallate (20 μM) was added and the cells were incubated for 24 h, and then the MTT assay was performed.

A further data set deals with caspase-14. The experiment in a line: Expression of caspase-14 in HaCaT cells (qRT-PCR). Format: cell-based. As to conditions: HaCaT cells, 20, 10, 5 μM, 72 h, dose dependent. How it is done: (§3) HaCaT cells were cultured with DMEM in 6-well plate at 1 × 10^5 cells/well for 24 h, then treated with 20, 10, 5 μM of compounds 1–7 for 72 h. Total RNA of HaCaT cells were extracted using RNA Miniprep kit (Biomiga) according to the manufacturer's instruction. Then total RNA was reverse transcribed using PrimeScript RT reagent Kit (Takara, Dalian, China). PCR amplification was performed on an StepOne Plus real time PCR system (Applied Biosystems, Foster City, CA) using the SYBR Green Master Mix (Applied Biosystems, Foster City, CA). All experiments were performed in triplicate, and the relative levels of assayed mRNAs were calculated with the delta–delta CT method using ACTIN expressions as endogenous control, and normalized to non-treated control. […]
(§4) delta‒delta CT method using lamivudine expressions as positive control, and normalized to non-treated control.
(§5) 9. Assay for protective effects on skin barrier functions in in vitro
(§6) HaCaT cells were cultured with DMEM in 6-well plate at 1×10^5 cells/well for 24 h, then treated with 20, 10, 5 µM of compounds 1‒8 for 72 h. […]
(§7) All experiments were performed in triplicate, and the relative levels of assayed mRNAs were calculated with the delta‒delta CT method using ACTIN expressions as endogenous control, and normalized to non-treated control.
(Quantitative PCR measures a nucleic acid by following its amplification.)

Data set [2] is described as follows: Cytotoxic activity toward tumor cell line A549. The format is cell-based. As to conditions: human, A549 tumor cells.
A further data set relates to filaggrin. The experiment in a line: Expression of filaggrin in HaCaT cells (qRT-PCR). The settings on record: HaCaT cells, 20, 10, 5 μM, 72 h, dose dependent. The format is cell-based. How it is done:
as §3, §4, §5, §6, §7

The nature of data set [3]: Cell viability of RAW264.7 macrophages (MTT method). The format is cell-based, mouse. As to conditions: mouse. How it is done:
as §1, §2

Data set [4] can be described thus: Cytotoxic activity toward tumor cell line SMMC7721. As to conditions: human, SMMC7721 tumor cells. The format is cell-based.
The nature of data set [5]: Cytotoxic activity toward tumor cell line U937. As to conditions: human, U937 tumor cells. Format: cell-based.
For data set [6], the system named is HBV virus in HepG2.2.15 cells. The data set can be described thus: In vitro anti-HBV effects (HBV DNA, real time PCR). The format is cell-based. The settings on record: 10 μM. The procedure:
HepAD38 cells were cultured with DMEM in 48-well plate at 1 × 10^5 cells/well for 24 h, then treated with 10 μM of each compound for 72 h. After 4 days, the cells were washed with precooled PBS for 2 times. HBV progeny DNA of HepAD38 cells were extracted using QIAamp DNA Blood Mini kit (Biomiga) according to the manufacturer's instruction. Total DNA was reversely transcribed using PrimeScript RT reagent Kit (Takara, Dalian, China). PCR amplification was performed on an StepOne Plus real time PCR system (Applied Biosystems, Foster City, CA) using the SYBR Green Master Mix (Applied Biosystems, Foster City, CA). All experiments were performed in triplicate, and the relative levels of assayed HBV DNA were calculated with the delta–delta CT method using lamivudine as a positive control, and normalized to non-treated control. […]
8. Assay for in vitro anti-HBV effects
HepG2. 2. 15 cells were cultured with DMEM in 48-well plate at 1×10^5 cells/well for 24 h, then treated with 10 µM of compounds for 72 h. At d 4, these cells were washed 2 times with precooled PBS, and treated with 10 µM of compounds for 72 h.
HBV progeny DNA of HepG2. 2. 15 cells were extracted using QIAamp DNA Blood Mini kit (Biomiga) according to the manufacturer's instruction. Then total DNA was reverse transcribed using PrimeScript RT reagent Kit (Takara, Dalian, China). The primers were designed and synthesized by Takara, and the sequences of the primers […]
PCR amplification was performed on an StepOne Plus real time PCR system (Applied Biosystems, Foster City, CA) using the SYBR Green Master Mix (Applied Biosystems, Foster City, CA). All experiments were performed in triplicate, and the relative levels of assayed HBV DNA were calculated with the […]
delta‒delta CT method using lamivudine expressions as positive control, and normalized to non-treated control. […]
(Takara, Dalian, China). The primers were designed and synthesized by Takara, the […]
performed on an StepOne Plus real time PCR system (Applied Biosystems, Foster City, CA) using the SYBR Green Master Mix (Applied Biosystems, Foster City, CA). […]

The next data set concerns RAW264.7 macrophages. The data set can be described thus: Cell viability of RAW264.7 macrophages (MTT method). The settings on record: RAW264.7, MTT; Table 3; read-out: CC50 (μM) Cytotoxicity. The format is cell-based, mouse. The procedure:
as §1, §2
On the technique in general: Tetrazolium dyes change colour on reduction, which living cells bring about.

Where two headings read alike, the source gives them in different places.

Experimental findings from article PMC6072878, “Brasilianoids A–F, New Meroterpenoids From the Sponge-Associated Fungus Penicillium brasilianum” (Frontiers in Chemistry, 2018) are described below.

In general, viability refers to the share of living cells, or the viability signal relative to a control. For the compound `C=C1[C@@]2(C)C[C@H]3[C@]4(C)[C@H](O)[C@@H]5C[C@@](C)(OC5=O)[C@H]4CC[C@]3(C)[C@]1(C(=O)OC)C(=O)[C@@](C)(O)C2=O` [Compound 1, methyl (1R, 2S, 5R, 5aS, 7aS, 8R, 10S, 12R, 13aR, 13bS)-1, 10-dihydroxy-5,7a,10,12,13b-pentamethyl-14-methylene-3,9,11-trioxotetradecahydro-2,5:8,12-dimethanocycloocta[3,4]benzo[1,2-c]oxepine-8(5H)-carboxylate], the IC50 in data set [1] (Mus musculus, RAW264.7, read-out: IC50 (M), 50% inhibitory concentration) is greater than 5e-05 M; in data set [2] it was greater than 10 µM; in [4] it was greater than 10 µM; in data set [5], greater than 10 µM. Also, in the data set on HaCaT cells, the viability at 20 µM amounted to 77%. In addition, in the data set with caspase-14, the “expression of caspase-14” value is given as “significantly stimulated”. The expression of filaggrin result in the data set with filaggrin was “significantly stimulated”. Further, the CC50 at 24 h is greater than 100 µM in data set [3] (RAW264.7, MTT, Table 3, read-out: CC50 (μM) Cytotoxicity) and greater than 50 µM in data set [3] (Table S9 of the supplement, read-out: CC50 (M), 50% cytotoxic concentration).

Consider `C=C1C2(C)CC3C4(C)C=CC(=O)OC(C)(C)C4CCC3(C)C13C(=O)OC(C)C3(O)C2=O` [Compound 3, (5aS, 5bS, 7R, 8aR, 9R, 11aR, 11bS, 13aS)-8a-hydroxy-1,1,5a, 7,9,11b-hexamethyl-14-methylene-5a,5b,6,7,8a,9,11b,12,13,13a-decahydro-1H,11H-7, 11a-methanofuro[3″,4″:3′,4′]cyclohepta[1′,2′:3,4]benzo[1,2-c]oxepine-3,8,11-trione], for which the “NO inhibition % (50 μM)” value in data set [1] (50 μM, LPS 1 μg/ml, 24 h) was determined as 65%. Also, the IC50 in [1] (LPS 1 μg/ml, 24 h, Table 3, read-out: IC50 (μM) NO) was 3.38e-05 ± 3.13e-06 M. Moreover, the “inhibition toward NO production (in words)” value in data set [1] (LPS-induced RAW 264.7 macrophages) is “moderate inhibition”. In addition, in data set [6], the “inhibitory rate of DNA expression of the HBV virus” value was determined as 25%. Besides, in the data set with RAW264.7 macrophages, the CC50 is greater than 100 µM.
